Article PMC3493529, “Molecular and Pharmacological Characterization of Serotonin 5-HT2α and 5-HT7 Receptors in the Salivary Glands of the Blowfly Calliphora vicina” (PLoS ONE, 2012)
Read-outs that look alike come from different tables or passages of the source.

What was measured:
[1] = system: blowfly salivary glands; assay: Transepithelial potential (TEP) of blowfly salivary glands, agonists; format: cell-based, Calliphora vicina; design: key to negative TEP phase / positive TEP phase: ++: high amplitude; +: low amplitude; -: no apparent effect; -/+: variable effect
Protocol: The abdominal portions of salivary glands were dissected in physiological saline (in mM: 128 NaCl, 10 KCl, 2 CaCl2, 2.7 MgCl2, 3 Na-glutamate, 2.8 maleic acid, 10 D-glucose and 10 Tris-HCl, pH 7.2). Measurements of transepithelial potential (TEP) were performed by the oil-gap method with a DPA-2F differential amplifier (npi Electronic Instruments, Tamm, Germany). Data were sampled and digitized at 1 Hz (KUSB-3102 module for AD-conversion; Keithley, Germering, Germany) by using the software TestPoint (v4.1; Capital Equipment Corp, Billerica, MA, USA) for data acquisition and storage.

[2] = molecular target: T1, Cv5-HT7 (Calliphora vicina, UniProt I7IA71); assay: Direct cAMP quantification (cAMP-Screen System) in Cv5-HT7-expressing cells; format: cell-based; conditions: 1 µM biogenic amine; 100 µM IBMX
T1 sequence (I7IA71 entry or part of it): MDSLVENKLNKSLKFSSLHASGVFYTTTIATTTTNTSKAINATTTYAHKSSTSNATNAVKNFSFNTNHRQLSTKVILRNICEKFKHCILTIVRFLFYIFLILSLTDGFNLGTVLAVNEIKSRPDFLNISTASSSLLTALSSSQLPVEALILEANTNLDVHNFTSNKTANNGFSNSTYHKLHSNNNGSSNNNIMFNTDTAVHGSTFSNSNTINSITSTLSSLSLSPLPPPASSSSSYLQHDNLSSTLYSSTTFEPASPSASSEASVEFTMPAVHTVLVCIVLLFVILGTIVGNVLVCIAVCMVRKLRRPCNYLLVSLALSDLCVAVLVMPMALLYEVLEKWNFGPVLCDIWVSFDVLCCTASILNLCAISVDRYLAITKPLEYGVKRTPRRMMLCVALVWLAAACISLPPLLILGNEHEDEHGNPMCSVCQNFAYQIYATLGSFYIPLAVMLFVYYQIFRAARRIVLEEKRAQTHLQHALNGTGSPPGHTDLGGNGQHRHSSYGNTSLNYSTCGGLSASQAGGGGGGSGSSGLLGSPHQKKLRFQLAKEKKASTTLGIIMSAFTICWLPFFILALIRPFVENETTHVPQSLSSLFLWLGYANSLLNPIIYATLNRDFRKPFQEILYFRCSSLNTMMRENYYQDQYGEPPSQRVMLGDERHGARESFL
Protocol: The Cv5-HT7-expressing cell line was also used to determine receptor-induced cAMP production in response to various biogenic amines directly. Assays to quantify cAMP amounts were performed as described earlier by using the cAMP-Screen System (Applied Biosystems, Darmstadt, Germany).

[3] = system: blowfly salivary glands; design: method as in PMID 6272697, PMID 4339528, PMID 16621952; conditions: cAMP formation, electrical response, luminal acidification and fluid secretion; read-out: 5-HT concentration eliciting the half-maximal effect in blowfly salivary glands; cited from earlier work
[4] = system: salivary glands; design: method as in PMID 9097929; conditions: read-out: EC50 of Ca2+ responses in salivary glands; cited from earlier work
[5] = molecular target: T2, Cv5-HT2α (Calliphora vicina, UniProt I7JA47); assay: Ca2+ signals (Fluo-4) in Cv5-HT2α-expressing HEK 293 cells, agonists; format: cell-based; conditions: for effect on [Ca2+]i in Cv5-HT2α-expressing cells: 1 µM biogenic amine, non-transfected cells as control
T2 sequence (I7JA47 entry or part of it): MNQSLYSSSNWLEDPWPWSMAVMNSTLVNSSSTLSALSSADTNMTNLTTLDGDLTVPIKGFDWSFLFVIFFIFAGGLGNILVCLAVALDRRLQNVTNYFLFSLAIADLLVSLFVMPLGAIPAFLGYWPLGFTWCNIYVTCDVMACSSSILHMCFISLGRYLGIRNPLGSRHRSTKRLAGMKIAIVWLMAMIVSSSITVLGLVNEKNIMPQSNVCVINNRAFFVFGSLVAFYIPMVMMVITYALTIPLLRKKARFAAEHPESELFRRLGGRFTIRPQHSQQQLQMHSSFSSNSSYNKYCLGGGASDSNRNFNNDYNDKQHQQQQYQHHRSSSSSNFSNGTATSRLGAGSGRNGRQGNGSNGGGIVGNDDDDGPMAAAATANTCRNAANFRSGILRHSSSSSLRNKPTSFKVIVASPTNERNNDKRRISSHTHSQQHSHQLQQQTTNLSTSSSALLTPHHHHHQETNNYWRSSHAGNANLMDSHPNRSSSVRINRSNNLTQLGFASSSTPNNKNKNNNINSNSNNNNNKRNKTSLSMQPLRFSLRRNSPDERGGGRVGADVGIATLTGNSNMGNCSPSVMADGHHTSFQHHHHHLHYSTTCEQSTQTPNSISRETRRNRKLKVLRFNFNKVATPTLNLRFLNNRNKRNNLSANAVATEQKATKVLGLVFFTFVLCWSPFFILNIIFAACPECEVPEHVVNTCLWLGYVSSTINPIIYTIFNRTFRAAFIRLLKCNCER
Protocol: (§1) We applied a previously established protocol to generate cell lines that constitutively expressed either Cv5-HT2α or Cv5-HT7. […] (flpTM cells, provided by Sibion biosciences GmbH, Jülich, Germany). Approximately 8 µg of the respective expression vectors were introduced into ∼4×10^5 cells by a modified calcium-phosphate method. Stably transfected cells were selected in the presence of the antibiotics Blasticidin (0.1 mg/ml; Cv5-HT2α) or G418 (0.8 mg/ml; Cv5-HT7). Expression of Cv5-HT2α and Cv5-HT7 was monitored by Western blotting with commercially available anti-His antibodies (anti-6x His Epitope Tag; Rockland Immunochemicals Inc, Gilbertsville, USA) and anti-HA antibodies (clone 3F10; Roche, Penzberg, Germany), respectively.
(§2) The ability of Cv5-HT2α to induce Ca^2+ signals in the transfected cell line was measured with the Ca^2+-sensitive dye Fluo-4. Similarly, Cv5-HT7-induced cAMP production was indirectly monitored by the cAMP-dependent activation of the cyclic nucleotide-gated ion channel in flpTM cells (see above). The cyclic nucleotide-gated ion channel is permeable to Ca^2+ ions and thus an increase in [cAMP]i leads to an influx of Ca^2+ ions, which can be detected with Fluo-4. […] After 1 h, the loading solution was substituted for dye-free ES. To inhibit cAMP hydrolysis in Cv5-HT7-expressing cells, ES containing 100 µM isobutylmethylxanthine (IBMX) was used. Plates were transferred into a fluorescence reader (FLUOstar Omega; bmg, Offenburg, Germany) and Fluo-4 fluorescence was monitored. […] Fluorescence emission was detected at 520 nm. Once the basal fluorescence in each well had reached a stable value, various concentrations of the respective ligands were added. The resulting changes in Fluo-4 fluorescence were recorded automatically.

[6] = molecular target: T1, Cv5-HT7; assay: cAMP-dependent CNG channel Ca2+ influx (Fluo-4) in Cv5-HT7-expressing flpTM cells, agonists; format: cell-based; conditions: Cv5-HT7-expressing flpTM cells, 100 µM IBMX
Protocol: as §1, §2

[7] = molecular target: T2, Cv5-HT2α; assay: Inhibition of 5-HT-induced Ca2+ signals in Cv5-HT2α-expressing cells; format: cell-based
Protocol: as §1, with “Cv5-HT7. For Cv5-HT2α expression, human embryonic kidney cells (HEK 293; ECACC, Salisbury, UK) were chosen.” for “Cv5-HT7.”
(§3) The ability of Cv5-HT2α to induce Ca^2+ signals in the transfected cell line was measured with the Ca^2+-sensitive dye Fluo-4. Similarly, Cv5-HT7-induced cAMP production was indirectly monitored by the cAMP-dependent activation of the cyclic nucleotide-gated ion channel in flpTM cells (see above). The cyclic nucleotide-gated ion channel is permeable to Ca^2+ ions and thus an increase in [cAMP]i leads to an influx of Ca^2+ ions, which can be detected with Fluo-4. Cells were grown in 96-well plates to a density of ∼3×10^4 (Cv5-HT2α) or 1.5×10^4 (Cv5-HT7) and then incubated in extracellular solution (ES in mM: 120 NaCl, 5 KCl, 2 CaCl2, 2 MgCl2, 10 glucose, 10 HEPES, pH 7.4) containing 3 mM probenecid, 0.02% (w/v) Pluronic® F-127 (Sigma) and 2 µM Fluo-4AM (Invitrogen). After 1 h, the loading solution was substituted for dye-free ES. To inhibit cAMP hydrolysis in Cv5-HT7-expressing cells, ES containing 100 µM isobutylmethylxanthine (IBMX) was used. Plates were transferred into a fluorescence reader (FLUOstar Omega; bmg, Offenburg, Germany) and Fluo-4 fluorescence was monitored. The excitation wavelength was 485 nm. Fluorescence emission was detected at 520 nm. Once the basal fluorescence in each well had reached a stable value, various concentrations of the respective ligands were added. The resulting changes in Fluo-4 fluorescence were recorded automatically.
(§4) Changes in Ca^2+-dependent Fluo-4 signals were registered automatically. Data represent the means±SD of eight replicates. […] Relative fluorescence (%) is normalized to the values obtained with 100 nM 5-HT in the absence of antagonists. […] Relative fluorescence (%) is normalized to the values obtained with 6 nM 5-HT in the absence of antagonists.

[8] = molecular target: T1, Cv5-HT7; assay: Inhibition of 5-HT-induced Fluo-4 signals in Cv5-HT7-expressing cells; format: cell-based; conditions: in the presence of 6 nM 5-HT
Protocol: as §1, with “Cv5-HT7. For Cv5-HT2α expression, human embryonic kidney cells (HEK 293; ECACC, Salisbury, UK) were chosen.” for “Cv5-HT7.”
as §3, §4

[9] = Cv5-HT2α EC50, Ca2+-dependent Fluo-4 signal, Cv5-HT2α-expressing HEK 293 cells
[10] = Cv5-HT2α log EC50, Ca2+-dependent Fluo-4 signal, Cv5-HT2α-expressing HEK 293 cells
[11] = Cv5-HT7 log EC50, Fluo-4 signal
[12] = Ca2+-dependent Fluo-4 signal, Cv5-HT2α-expressing HEK 293 cells

NCCc1c[nH]c2ccc(O)cc12 [5-HT, 5-hydroxytryptamine]
TEP change of salivary glands ([1]; 30 nM): characteristic biphasic change in the TEP
effect on [cAMP]i in Cv5-HT7-expressing cells [2]: rise of [cAMP]i
EC50 [3]: 1 to 6 nM
EC50 [4]: 2.8 nM
effect on [Ca2+]i in Cv5-HT2α-expressing cells [5]: increase of [Ca^2+]i
EC50 [5, 9]: 24 nM
EC50 [5, 10]: 24 nM
EC50 ([6]; Fluo-4 signal, read-out: Cv5-HT7 EC50): 4 nM
EC50 ([6]; Fluo-4 signal, read-out: Cv5-HT7 log EC50 (converted)): 4.07 nM

NCCc1ccc(O)cc1 [tyramine]
effect on [cAMP]i in Cv5-HT7-expressing cells [2]: only 5-HT led to a rise of [cAMP]i
effect on [Ca2+]i in Cv5-HT2α-expressing cells [5]: only 5-HT led to an increase of [Ca^2+]i

NCC(O)c1ccc(O)cc1 (centres unmarked) [octopamine]
effect on [cAMP]i in Cv5-HT7-expressing cells [2]: only 5-HT led to a rise of [cAMP]i
effect on [Ca2+]i in Cv5-HT2α-expressing cells [5]: only 5-HT led to an increase of [Ca^2+]i

NCCc1ccc(O)c(O)c1 [dopamine]
effect on [cAMP]i in Cv5-HT7-expressing cells [2]: only 5-HT led to a rise of [cAMP]i
effect on [Ca2+]i in Cv5-HT2α-expressing cells [5]: only 5-HT led to an increase of [Ca^2+]i

COc1ccc2[nH]cc(CCN)c2c1 [5-MeOT, 5-methoxytryptamine]
TEP change of salivary glands ([1]; 30 nM or 100 nM): only a negative-going TEP change
negative TEP phase ([1]; 0.03-0.1 µM): ++
positive TEP phase ([1]; 0.03-0.1 µM): -
reversibility ([1]; 0.03-0.1 µM): yes
negative TEP phase ([1]; 1-100 µM): ++
positive TEP phase ([1]; 1-100 µM): +
reversibility ([1]; 1-100 µM): yes
TEP change of salivary glands ([1]; 1–100 µM): biphasic response
EC50 [5, 9]: 67 nM
EC50 [5, 10]: 67.6 nM
EC50 ([6]; Cv5-HT7 EC50, Fluo-4 signal): 950 nM
EC50 [6, 11]: 955 nM

CC[C@@H](CO)NC(=O)[C@@H]1C=C2c3cccc4c3c(cn4C)C[C@H]2N(C)C1 [methysergide]
TEP change of salivary glands ([1]; 3 µM): complex biphasic TEP responses
negative TEP phase ([1]; 3 µM): +
reversibility ([1]; 3 µM): yes
IC50 ([7]; Cv5-HT2α IC50, in the presence of 100 nM 5-HT): 20000 nM
IC50 ([7]; Cv5-HT2α log IC50, in the presence of 100 nM 5-HT): 19500 nM
Cv5-HT2α EC50 [5, 12]: no effect
Cv5-HT2α log EC50 [5, 12]: no effect
EC50 ([6]; Cv5-HT7 EC50, Fluo-4 signal): 770 nM
EC50 [6, 11]: 776 nM
Cv5-HT7 IC50 [8]: agonistic effect
Cv5-HT7 log IC50 [8]: agonistic effect
